Consider 29 compounds from the SangsterLogP compilation.

`CC(=O)OC1(C(=O)CO)CCC2C3CCC4=CC(=O)C=CC4(C)C3C(=O)CC21C` (centres undefined) yielded a logP of 2.43.

As for `CCCC(=O)O[C@]1(C(=O)CCl)[C@@H](C)C[C@H]2[C@@H]3CCC4=CC(=O)C=C[C@]4(C)[C@@]3(F)[C@@H](O)C[C@@]21C`, the logP turned out to be 3.63.

On to `CCC(=O)O[C@]1(C(=O)CCl)[C@@H](C)C[C@H]2[C@@H]3CCC4=CC(=O)C=C[C@]4(C)[C@@]3(Cl)[C@@H](O)C[C@@]21C`, for which the logP was found to be 3.28.

Regarding `CCCC(=O)O[C@]1(C(=O)CO)CC[C@H]2[C@@H]3CCC4=CC(=O)CC[C@]4(C)[C@H]3[C@@H](O)C[C@@]21C`, the logP came out at 3.18.

Take `CCCCC(=O)OCC(=O)[C@@]1(O)[C@@H](C)C[C@H]2[C@@H]3CCC4=CC(=O)C=C[C@]4(C)[C@@]3(F)[C@@H](O)C[C@@]21C`: the logP turned out to be 3.87.

`CCCCC(=O)OCC(=O)[C@@]1(OC(=O)CCCC)[C@@H](C)C[C@H]2[C@@H]3CCC4=CC(=O)C=C[C@]4(C)[C@@]3(F)[C@@H](O)C[C@@]21C`: the logP stood at 5.26.

In the case of `CCC(=O)O[C@]1(C(=O)CCl)[C@@H](C)C[C@H]2[C@@H]3CCC4=CC(=O)C=C[C@]4(C)[C@@]3(F)[C@@H](O)C[C@@]21C`, the lipophilicity (logP) amounted to 3.18.

For `CC(=O)[C@@]1(O)[C@@H](C)C[C@H]2[C@@H]3CCC4=CC(=O)C=C[C@]4(C)[C@@]3(F)[C@@H](O)C[C@@]21C`, the logP was determined as 2.35.

On to `CCC(=O)O[C@]1(C(=O)CO)CC[C@H]2[C@@H]3CCC4=CC(=O)CC[C@]4(C)[C@H]3[C@@H](O)C[C@@]21C`, for which the logP worked out at 2.7.

`CCC(=O)O[C@]1(C(=O)CCl)[C@@H](C)C[C@H]2[C@@H]3CCC4=CC(=O)C=C[C@]4(C)[C@H]3[C@@H](O)C[C@@]21C` registered a logP of 3.34.

Regarding `CCCC(=O)OCC(=O)C1(O)C(C)CC2C3CCC4=CC(=O)C=CC4(C)C3(F)C(O)CC21C` (centres undefined), the logP was found to be 3.55.

In the case of `CCC(=O)O[C@]1(C(=O)CCl)[C@@H](C)C[C@H]2[C@@H]3CCC4=CC(=O)C=C[C@]4(C)[C@H]3C(=O)C[C@@]21C`, the logP is 3.3.

`CCC(=O)O[C@]1(C(C)=O)[C@@H](C)C[C@H]2[C@@H]3CCC4=CC(=O)C=C[C@]4(C)[C@@]3(F)C(=O)C[C@@]21C`: the logP worked out at 3.09.

On to `CCC(=O)OCC(=O)[C@@]1(O)CC[C@H]2[C@@H]3CCC4=CC(=O)CC[C@]4(C)[C@H]3[C@@H](O)C[C@@]21C`, for which the logP was determined as 2.8.

Turning to `CCC(=O)O[C@]1(C(=O)CCl)[C@@H](C)C[C@H]2[C@@H]3CCC4=CC(=O)C=C[C@]4(C)[C@@]3(F)C(=O)C[C@@]21C`, the logP came out at 3.46.

With `CCCCC(=O)O[C@]1(C(=O)CO)CC[C@H]2[C@@H]3CCC4=CC(=O)CC[C@]4(C)[C@H]3[C@@H](O)C[C@@]21C`, the logP stood at 3.79.

Consider `C[C@]12C=CC(=O)C=C1CC[C@H]1[C@@H]3CC[C@](O)(C(=O)CO)[C@@]3(C)C[C@H](O)[C@@]12F`, for which the logP came out at 1.51.

As to `CCC(=O)O[C@]1(C(=O)CBr)[C@@H](C)C[C@H]2[C@@H]3CCC4=CC(=O)C=C[C@]4(C)[C@@]3(F)C(=O)C[C@@]21C`, the logP came out at 3.55.

As to `CC12CCC(=O)C=C1CCC1C3CCC(O)(C(=O)CO)C3(C)CC(=O)C12F` (centres undefined), the logP worked out at 1.37.

Compound `CCCC(=O)OCC(=O)[C@@]1(O)CCC2C3CCC4=CC(=O)CC[C@]4(C)C3C(O)C[C@@]21C` (some centres undefined) displayed a logP of 2.91.

`CCCCC(=O)OCC(=O)[C@@]1(O)CC[C@H]2[C@@H]3CCC4=CC(=O)CC[C@]4(C)[C@H]3[C@@H](O)C[C@@]21C` had a logP of 3.62.

Consider `C[C@]12C[C@H](O)[C@H]3[C@@H](CCC4=CC(=O)CC[C@@]43C)[C@@H]1CC[C@@H]2C(=O)CO`, for which the logP is 2.06.

Compound `CCCC(=O)O[C@]1(C(=O)CCl)[C@@H](C)C[C@H]2[C@@H]3CCC4=CC(=O)C=C[C@]4(C)[C@@]3(F)C(=O)C[C@@]21C` showed a logP of 3.76.

For `C[C@H]1C[C@H]2[C@@H]3CCC4=CC(=O)C=C[C@]4(C)[C@@]3(F)[C@@H](O)C[C@]2(C)[C@@]1(O)C(=O)CCl`, the logP turned out to be 2.48.

As to `C[C@H]1C[C@H]2[C@@H]3CCC4=CC(=O)C=C[C@]4(C)[C@@]3(F)C(=O)C[C@]2(C)[C@@]1(O)C(=O)CCl`, the logP was found to be 2.61.

In the case of `CC(=O)O[C@]1(C(=O)CO)CC[C@H]2[C@@H]3CCC4=CC(=O)CC[C@]4(C)[C@H]3C(=O)C[C@@]21C`, the logP is 2.45.

Take `C[C@]12C=CC(=O)C=C1CC[C@@H]1[C@@H]2[C@@H](O)C[C@@]2(C)[C@H]1CC[C@]2(O)C(=O)CO`: the logP came to 1.58.

In turn, `CCC(=O)OCC(=O)[C@@]1(O)[C@@H](C)C[C@H]2[C@@H]3CCC4=CC(=O)C=C[C@]4(C)[C@@]3(F)[C@@H](O)C[C@@]21C` came in with a log partition coefficient (logP) of 3.06.

On to `CCCCC(=O)O[C@]1(C(=O)CO)CC[C@H]2[C@@H]3CCC4=CC(=O)C=C[C@]4(C)[C@H]3[C@@H](O)C[C@@]21C`, for which the logP was found to be 3.82.

In general, logP refers to the decadic logarithm of the partition coefficient of the neutral form, usually between octanol and water.
